“And” between values parts separate entries of the source, which are not always exact repeats. Identical values can stand only once. Counter-ions that a name gives are not always drawn. Like-named read-outs stand apart in the source and are kept apart here.
Tests used:
[1] = test system: MV-4-11; assay: Antiproliferation assay (Assay 7), MV-4-11; format: cell-based; details: CellTiter-Glo, several values per example
Method in brief: (§1)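 Plate cells in treatment and day 0 reference plates; read day 0 plate with CellTiter-Glo after 10 min; incubate treated plates 72 h at 37° C; read them identically.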

[2] = molecular target: MCL-1 (Homo sapiens (Human), UniProt Q07820, K194A/K197A/R201A); assay: Protein-protein interaction assay MCL-1/Noxa BH3 peptide (MCL-1 assay, TR-FRET); format: binding; details: MBP-MCL-1 / Noxa BH3 peptide, median
Method in brief: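 TR-FRET competition assay read at 665/620 nm, with a Noxa BH3 tracer peptide (1 nM) plus Eu-cryptate anti-MBP and XL665-streptavidin. Compounds (0.1 nM-20 μM, duplicates) were pre-equilibrated 10 min at 22° C with 1 nM MBP-MCL-1 (173-329) in Tris pH 7, NaCl, KF, DTT buffer, then incubated 1 h at 22° C and overnight at 4° C. IC50 came from 4-parameter regression.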

[3] = test system: SUDHL5; assay: Antiproliferation assay (Assay 7), SUDHL5; format: cell-based; details: CellTiter-Glo, median, read-out: Antiproli SUDHL5 [M] (median) IC50
Method in brief: as §1

[4] = test system: SUDHL5; assay: Induction of caspase-3/7 activity (Assay 4), SUDHL5; format: cell-based; details: caspase-3/7 induction, median
Method in brief: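 DLBCL cells were exposed to compounds for 3 hours at 37 °C, then caspase-3/7 activation was read with Caspase-Glo 3/7 reagent. After subtracting medium-only background, EC50s were derived with fixed C0=1 and the reference compound's maximal induction as plateau.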

[5] = test system: SUDHL10; assay: Induction of cytotoxicity (Assay 6), SUDHL10; details: read-out: Cytotox SUDHL10 [M] (median) IC50, CellTiter-Glo, 5 hours, SUDHL10
Procedure: Assay 6 Induction of Cytotoxicity Upon Treatment of Cells with Selected Compounds
Therefore, cytotoxicity assays were run in parallel in SUDHL5 and SUDHL10 cells.
The different cell lines were plated in culture medium (RPMI 1640 [GIBCO #22400-089] supplemented with 10% Fetal Bovine Serum) at a density of 3,300 cells in 30 μl/well in a sterile, solid black, flat bottom, polystyrene, TC-treated 384-well microplate (Corning #3571) using Multidrop Combi Reagent Dispenser. As a control, medium without cells was also added to the plate. Cells were incubated in a humidified incubator at 37° C. overnight. On the next day, the cells were treated with compounds (stock solution, 10 mM in DMSO) using the HP D300 Digital Dispenser in a concentration range of 3.3×10e-5 M (33 μM) to 5×10e-9 M (5 nM) in a single-dot curve with at least 16 dilutions and a DMSO concentration of 0.33%. Rim wells were excluded. The cells were incubated for 5 hours in a humidified incubator at 37° C. After this incubation, 30 μl of CellTiter-Glo® Luminescent Cell Viability reagent (Promega, G7573) was added to each well using the Multidrop Combi Reagent Dispenser, followed by 15 minutes incubation on a shaker at room temperature. Finally, luminescence was read at 0.1 ms, with a gain of 3000 using the PHERAstar FS microplate reader (BMG Labtech).

[6] = test system: AMO-1; assay: Antiproliferation assay (Assay 7), AMO-1; format: cell-based; details: CellTiter-Glo, several values per example
Method in brief: as §1

[7] = test system: SUDHL5; assay: Induction of cytotoxicity (Assay 6), SUDHL5; details: read-out: Cytotox SUDHL5 [M] (median) IC50, CellTiter-Glo, 5 hours, SUDHL5
[8] = Homo sapiens, AMO1, 72 h, read-out: Antiproli AMO-1 [M] IC50
[9] = Homo sapiens, MV4-11, 72 h, read-out: Antiproli MV-4-11 [M] IC50
[10] = 72 hours, read-out: Antiproli MV-4-11 [M] IC50

Chain of MCL-1 (Q07820 whole entry K194A/K197A/R201A, looked up): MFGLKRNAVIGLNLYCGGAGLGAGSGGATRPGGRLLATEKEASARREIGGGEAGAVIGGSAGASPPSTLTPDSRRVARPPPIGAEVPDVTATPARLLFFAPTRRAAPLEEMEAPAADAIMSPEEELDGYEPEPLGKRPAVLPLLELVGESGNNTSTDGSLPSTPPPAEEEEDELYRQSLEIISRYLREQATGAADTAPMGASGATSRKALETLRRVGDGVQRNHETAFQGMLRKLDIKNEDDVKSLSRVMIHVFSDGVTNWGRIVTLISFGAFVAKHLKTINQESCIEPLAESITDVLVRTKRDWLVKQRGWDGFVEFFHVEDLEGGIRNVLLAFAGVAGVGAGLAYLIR

SMILES | IC50 ([1]; 72 hours, listed as 04, read-out: Antiproli MV-4-11 [M] IC50) | IC50 [2] | IC50 ([3]; 72 hours) | EC50 ([4]; 3 hours) | IC50 [5] | IC50 [6, 8] | IC50 [7] | IC50 ([1]; 72 hours, listed as 07, read-out: Antiproli MV-4-11 [M] IC50) | IC50 [1, 9] | IC50 ([3]; Homo sapiens, SU-DHL-5, 72 h) | EC50 ([4]; Homo sapiens, SU-DHL-5, 3 h) | IC50 ([5]; Homo sapiens, SU-DHL10, 5 h) | IC50 ([6]; 72 hours, listed as 07, read-out: Antiproli AMO-1 [M] IC50) | IC50 ([7]; Homo sapiens, SU-DHL-5, 5 h) | IC50 [1, 10] | IC50 ([6]; 72 hours, read-out: Antiproli AMO-1 [M] IC50)
Cc1c2c(nn1C)CN(C)S(=O)(=O)CCCn1c(C(=O)O)c(CCCOc3cccc4ccccc34)c3ccc(Cl)c-2c31 (racemic) [Example 4, (rac)-4-Chloro-2,3,14-trimethyl-7-{3-[(naphthalen-1-yl)oxy]propyl}-13,13-dioxo-10,11,12,13,14,15-hexahydro-2H-13λ^6-pyrazolo[3′,4′:4,5][1,2,8]thiadiazacycloundecino-[6,7,8-hi]indole-8-carboxylic acid] | 1.58e-06 M and 1.47e-06 M and 1.25e-06 M | 0.0012 µM | 9.2e-07 M | 0.63 µM | 1.2e-06 M | 2.5e-06 M | 8.1e-07 M | – | – | – | – | – | – | – | – | –
CCc1c2c(nn1C)CN(C)S(=O)(=O)CCCn1c(C(=O)O)c(CCCOc3cccc4cc(F)ccc34)c3ccc(F)c-2c31 (racemic) [Example 7, (rac)-12-Ethyl-13-fluoro-1-(3-((6-fluoronaphthalen-1-yl)oxy)propyl)-8,11-dimethyl-5,6,9,11-tetrahydro-4H,8H-pyrazolo[3′,4′:4,5][1]thia[2,8]diazacycloundecino[6,7,8-hi]indole-2-carboxylic acid 7,7-dioxide] | – | 0.0013 µM | – | – | – | 2e-06 M | – | 2.15e-06 M | 1.35e-06 M | 2.2e-07 M | 0.51 µM | 9.1e-07 M | 2.2e-06 M | 4.7e-07 M | – | –
CCc1c2c(nn1C)CN(CCCN1CCCC1=O)S(=O)(=O)CCCn1c(C(=O)O)c(CCCOc3cccc4ccccc34)c3cccc-2c31 (racemic) [Example 13, (rac)-12-Ethyl-11-methyl-1-(3-(naphthalen-1-yloxy)propyl)-8-(3-(2-oxopyrrolidin-1-yl)propyl)-5,6,9,11-tetrahydro-4H,8H-pyrazolo[3′,4′:4,5][1]thia[2,8]diazacycloundecino[6,7,8-hi]indole-2-carboxylic acid 7,7-dioxide] | – | 0.0063 µM | – | – | – | > 3.3e-05 M | – | – | 1.62e-05 M | 4.4e-06 M | 10 µM | 1.7e-05 M | – | 8.2e-06 M | – | –
CCc1c2c(nn1C)CN(CCN1CCCCC1)S(=O)(=O)CCCn1c(C(=O)O)c(CCCOc3cccc4ccccc34)c3cccc-2c31 (racemic) [Example 14, (rac)-12-Ethyl-11-methyl-1-(3-(naphthalen-1-yloxy)propyl)-8-(2-(piperidin-1-yl)ethyl)-4,5,6,8,9,11-hexahydropyrazolo[3′,4′:4,5][1,2,8]thiadiazacycloundecino[6,7,8-hi]indole-2-carboxylic acid 7,7-dioxide 2,2,2-trifluoroacetic acid salt] | – | 0.0098 µM | – | – | – | 1.9e-05 M | – | – | 1.18e-05 M | 3.3e-06 M | 4.6 µM | 8.5e-06 M | – | 5.2e-06 M | 1.28e-05 M | 1.7e-05 M
CCc1c2c(nn1C)CN(CCCN1CCOCC1)S(=O)(=O)CCCn1c(C(=O)O)c(CCCOc3cccc4ccccc34)c3cccc-2c31 (racemic) [Example 15, (rac)-12-Ethyl-11-methyl-8-(3-morpholinopropyl)-1-(3-(naphthalen-1-yloxy)propyl)-4,5,6,8,9,11-hexahydropyrazolo[3′,4′:4,5][1,2,8]thiadiazacycloundecino[6,7,8-hi]indole-2-carboxylic acid 7,7-dioxide 2,2,2-trifluoroacetic acid salt] | – | 0.0056 µM | – | – | – | 1.2e-05 M | – | – | 9.37e-06 M | 1.8e-06 M | 2.5 µM | 6.3e-06 M | – | 2.9e-06 M | 1.04e-05 M | –
CCc1c2c(nn1C)CN(CCCN1CCCC1)S(=O)(=O)CCCn1c(C(=O)O)c(CCCOc3cccc4ccccc34)c3cccc-2c31 (racemic) [Example 16, (rac)-12-Ethyl-11-methyl-1-(3-(naphthalen-1-yloxy)propyl)-8-(3-(pyrrolidin-1-yl)propyl)-5,6,9,11-tetrahydro-4H,8H-pyrazolo[3′,4′:4,5][1]thia[2,8]diazacycloundecino[6,7,8-hi]indole-2-carboxylic acid 7,7-dioxide] | – | 0.0057 µM | – | – | – | > 3.3e-05 M | – | – | > 3.3e-05 M | 2.2e-05 M | 32 µM | > 3.3e-05 M | – | 3.2e-05 M | – | –
CCc1c2c(nn1C)CNS(=O)(=O)CCCn1c(C(=O)O)c(CCCOc3cccc4ccccc34)c3cccc-2c31 (racemic) [Example 17, (rac)-12-Ethyl-11-methyl-1-(3-(naphthalen-1-yloxy)propyl)-4,5,6,8,9,11-hexahydropyrazolo[3′,4′:4,5][1,2,8]thiadiazacycloundecino[6,7,8-hi]indole-2-carboxylic acid 7,7-dioxide] | – | 0.0081 µM | – | – | – | > 3.3e-05 M | – | – | 1.65e-05 M | 4.7e-06 M | 13 µM | 1.6e-05 M | – | 9.3e-06 M | – | –
CCc1c2c(nn1C)C(C)N(C)S(=O)(=O)CCCn1c(C(=O)O)c(CCCOc3cccc4ccccc34)c3cccc-2c31 (racemic) [Example 18, 12-Ethyl-8,9,11-trimethyl-1-(3-(naphthalen-1-yloxy)propyl)-5,6,9,11-tetrahydro-4H,8H-pyrazolo[3′,4′:4,5][1]thia[2,8]diazacycloundecino[6,7,8-hi]indole-2-carboxylic acid 7,7-dioxide (Mixture of Stereoisomers)] | – | 0.0078 µM | – | – | – | 9.6e-06 M | – | – | 3.75e-06 M | 3.7e-06 M | 3.8 µM | 9.2e-06 M | – | 3.5e-06 M | – | –
Cc1c2c(nn1C)CN(C)S(=O)(=O)CCCn1c(C(=O)O)c(CCCOc3cccc4cc(F)ccc34)c3ccc(F)c-2c31 (racemic) [Example 25, (rac)-13-Fluoro-1-(3-((6-fluoronaphthalen-1-yl)oxy)propyl)-8,11,12-trimethyl-5,6,9,11-tetrahydro-4H,8H-pyrazolo[3′,4′:4,5][1]thia[2,8]diazacycloundecino[6,7,8-hi]indole-2-carboxylic acid 7,7-dioxide] | – | 0.0017 µM | – | – | – | 4.1e-06 M | – | – | 1.73e-06 M | 4.1e-07 M | 0.67 µM | 2e-06 M | – | 7.5e-07 M | – | –
Cc1c2c(nn1C)CN(C)S(=O)(=O)CCCn1c(C(=O)O)c(CCCOc3cccc4ccccc34)c3ccc(F)c-2c31 (racemic) [Example 26, (rac)-13-Fluoro-8,11,12-trimethyl-1-(3-(naphthalen-1-yloxy)propyl)-5,6,9,11-tetrahydro-4H,8H-pyrazolo[3′,4′:4,5][1]thia[2,8]diazacycloundecino[6,7,8-hi]indole-2-carboxylic acid 7,7-dioxide] | – | 0.0036 µM | – | – | – | 7.1e-06 M | – | – | 5.17e-07 M | 1.4e-06 M | 1.3 µM | 3.4e-06 M | – | 1.8e-06 M | – | –
Cc1c2c(nn1C)CN(C)S(=O)(=O)CCCn1c(C(=O)O)c(CCCOc3cccc4c3CCC4)c3ccc(F)c-2c31 (racemic) [Example 27, (rac)-1-(3-((2,3-Dihydro-1H-inden-4-yl)oxy)propyl)-13-fluoro-8,11,12-trimethyl-5,6,9,11-tetrahydro-4H,8H-pyrazolo[3′,4′:4,5][1]thia[2,8]diazacycloundecino[6,7,8-hi]indole-2-carboxylic acid 7,7-dioxide] | – | 0.0021 µM | – | – | – | 2.5e-06 M | – | – | 8.61e-07 M | 7.8e-07 M | 0.7 µM | 2.1e-06 M | – | 8.7e-07 M | – | –
CCc1c2c(nn1C)CN(C)S(=O)(=O)CCCn1c(C(=O)O)c(CCCOc3cc(C)c(Cl)c(C)c3)c3ccc(F)c-2c31 (racemic) [Example 33, (rac)-1-(3-(4-Chloro-3,5-dimethylphenoxy)propyl)-12-ethyl-13-fluoro-8,11-dimethyl-5,6,9,11-tetrahydro-4H,8H-pyrazolo[3′,4′:4,5][1]thia[2,8]diazacycloundecino[6,7,8-hi]indole-2-carboxylic acid 7,7-dioxide] | – | 0.0042 µM | – | – | – | 4.8e-06 M | – | – | 4.62e-06 M | – | 1.6 µM | 6.4e-06 M | – | 2.6e-06 M | – | –
